Measured values: US20220169654A1, “New Organic Compounds” (Servier Pharmaceuticals LLC, priority 2020, published 2022)

These compounds were tested against T1, MAT2A homodimer (Homo sapiens, UniProt P31153) (assay: MAT2A inhibition (biochemical, liberated phosphate, PiColorLock Gold)). Conditions: recombinant MAT2A homodimer; IC50 bin with Max Inh.; read-out: Enzyme Inhibition Bin.
T1 construct: inferred from Ni sepharose purification with imidazole elution; made in house; host or cells: Sf9 insect cells, baculovirus (Bac to Bac, pFASTBAC1)
T1 sequence (P31153 whole entry): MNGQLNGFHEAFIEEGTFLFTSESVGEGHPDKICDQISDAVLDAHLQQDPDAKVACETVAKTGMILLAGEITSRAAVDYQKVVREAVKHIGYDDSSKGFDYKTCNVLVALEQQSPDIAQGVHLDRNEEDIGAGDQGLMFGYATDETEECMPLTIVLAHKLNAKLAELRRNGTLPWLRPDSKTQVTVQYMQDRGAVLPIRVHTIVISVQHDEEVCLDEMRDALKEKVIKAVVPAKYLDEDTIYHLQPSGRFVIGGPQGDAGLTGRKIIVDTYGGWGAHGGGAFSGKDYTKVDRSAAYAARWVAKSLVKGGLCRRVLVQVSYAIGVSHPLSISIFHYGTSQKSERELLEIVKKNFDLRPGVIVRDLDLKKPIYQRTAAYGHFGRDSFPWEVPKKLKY
Method: Mat2A protein was expressed by recombinant baculovirus in SF9 infected cells using the Bac to Bac system cloned into the pFASTBAC1 vector (Invitrogen, Carlsbad, Calif.). Recombinant MAT2A was isolated from the cell lysate of 150 g of infected cells using HP Ni sepharose column chromatography. Recombinant MAT2A homodimer was eluted with 250 and 500 mM imidazole, and fractions containing MAT2A were identified by sodium dodecyl sulfate polyacrylamide gel electrophoresis and pooled.
For determination of the inhibitory potency of compounds against the MAT2A homodimer, protein was diluted to 4 μg/mL in assay buffer (50 mM Tris, pH 8.0, 50 mM KCl, 15 mM MgCl2, 0.3 mM EDTA, 0.005% [w/v] bovine serum albumin [BSA]). Test compound was prepared in 100% dimethyl sulfoxide (DMSO) at 50× the desired final concentration. A 1 μL volume of compound dilution was added to 40 μL of enzyme dilution and the mixture was allowed to equilibrate for 60 minutes at 25° C. The enzymatic assay was initiated by the addition of 10 μL of substrate mix (500 μM ATP, pH 7.0, 400 μM L-methionine in 1× assay buffer), and the mixture was incubated for a further 60 minutes at 25° C. The reaction was halted and the liberated phosphate released by the enzyme in stoichiometric amounts by the production of S-adenosyl methionine (SAM) was measured using the PiColorLock Gold kit (Innova Biosciences, UK). Absolute product amounts were determined by comparison to a standard curve of potassium phosphate buffer, pH 8.0. The compounds were also tested in a secondary assay utilizing 1 μg/mL MAT2A and incubated for 5 hours at 25° C. before halting and processing as above.
Specific compounds disclosed herein were tested in the foregoing assay and they were determined to inhibit MAT2A with an IC50. See, Table 1 below.
CC(C)Cn1cc(C#N)c2nn(-c3ccc4nn(C)cc4c3)c(=O)c(-c3ccc(C4CC4)nc3)c21 [Example 121, 4-(6-cyclopropylpyridin-3-yl)-5-isobutyl-2-(2-methyl-2H-indazol-5-yl)-3-oxo-3,5-dihydro-2H-pyrrolo[3,2-c]pyridazine-7-carbonitrile] was tested, and the IC50 was < 1 µM.
In the case of Cn1cc2cc(-n3nc4ccn(CC5CC5)c4c(-c4cncc(C(F)(F)F)c4)c3=O)ccc2n1 [Example 125, 5-(cyclopropylmethyl)-2-(2-methyl-2H-indazol-5-yl)-4-(5-(trifluoromethyl)pyridin-3-yl)-2,5-dihydro-3H-pyrrolo[3,2-c]pyridazin-3-one], the IC50 is reported as > 10 µM.
In the case of Cn1cc2cc(-n3nc4ccn(CC5CC5)c4c(-c4cncc(Cl)c4)c3=O)ccc2n1 [Example 126, 4-(5-chloropyridin-3-yl)-5-(cyclopropylmethyl)-2-(2-methyl-2H-indazol-5-yl)-2,5-dihydro-3H-pyrrolo[3,2-c]pyridazin-3-one], the IC50 is reported as < 1 µM.
CC(C)n1cc(C#N)c2nn(-c3ccc4nn(C)cc4c3)c(=O)c(-c3ccc(C4CC4)nc3)c21 [Example 146, 4-(6-cyclopropylpyridin-3-yl)-5-isopropyl-2-(2-methyl-2H-indazol-5-yl)-3-oxo-3,5-dihydro-2H-pyrrolo[3,2-c]pyridazine-7-carbonitrile] was tested, and the IC50 was < 1 µM.
With CN(C)C(=O)c1cn(CC2CC2)c2c(-c3ccc(C4CC4)nc3)c(=O)n(-c3ccc4nn(C)cc4c3)nc12 [Example 164, 5-(cyclopropylmethyl)-4-(6-cyclopropylpyridin-3-yl)-N,N-dimethyl-2-(2-methyl-2H-indazol-5-yl)-3-oxo-3,5-dihydro-2H-pyrrolo[3,2-c]pyridazine-7-carboxamide] the IC50 was < 1 µM.
With CNS(=O)(=O)c1cn(CC2CC2)c2c(-c3ccc(C4CC4)cc3)c(=O)n(-c3ccc4nn(C)cc4c3)nc12 [Example 179, 5-(cyclopropylmethyl)-4-(4-cyclopropylphenyl)-N-methyl-2-(2-methyl-2H-indazol-5-yl)-3-oxo-3,5-dihydro-2H-pyrrolo[3,2-c]pyridazine-7-sulfonamide] the IC50 was > 10 µM.
With CNS(=O)(=O)c1cn(CC2CC2)c2c(-c3ccc(C4CC4)nc3)c(=O)n(-c3ccc4nn(C)cc4c3)nc12 [Example 181, 5-(cyclopropylmethyl)-4-(6-cyclopropylpyridin-3-yl)-N-methyl-2-(2-methyl-2H-indazol-5-yl)-3-oxo-3,5-dihydro-2H-pyrrolo[3,2-c]pyridazine-7-sulfonamide] the IC50 was > 10 µM.
With CNS(=O)(=O)c1cn(CC2CC2)c2c(-c3ccc(C)nc3)c(=O)n(-c3ccc4nn(C)cc4c3)nc12 [Example 182, 5-(cyclopropylmethyl)-N-methyl-2-(2-methyl-2H-indazol-5-yl)-4-(6-methylpyridin-3-yl)-3-oxo-3,5-dihydro-2H-pyrrolo[3,2-c]pyridazine-7-sulfonamide] the IC50 was > 10 µM.
CNS(=O)(=O)c1cn(CC2CC2)c2c(-c3ccc(OC(F)F)cc3)c(=O)n(-c3ccc4nn(C)cc4c3)nc12 [Example 183, 5-(cyclopropylmethyl)-4-(4-(difluoromethoxy)phenyl)-N-methyl-2-(2-methyl-2H-indazol-5-yl)-3-oxo-3,5-dihydro-2H-pyrrolo[3,2-c]pyridazine-7-sulfonamide] was tested, and the IC50 was > 10 µM.
With CN1CC=C(n2nc3ccn(CC4CC4)c3c(-c3ccc(C4CC4)nc3)c2=O)CC1 [Example 232, 5-(cyclopropylmethyl)-4-(6-cyclopropylpyridin-3-yl)-2-(1-methyl-1,2,3,6-tetrahydropyridin-4-yl)-2,5-dihydro-3H-pyrrolo[3,2-c]pyridazin-3-one] the IC50 was > 10 µM.
For Cn1cc2cc(-n3nc4c(S(C)(=O)=O)cn(CC5CC5)c4c(-c4ccc(C5CC5)nc4)c3=O)ccc2n1 [Example 261, 5-(cyclopropylmethyl)-4-(6-cyclopropylpyridin-3-yl)-2-(2-methyl-2H-indazol-5-yl)-7-(methylsulfonyl)-2,5-dihydro-3H-pyrrolo[3,2-c]pyridazin-3-one], the IC50 was < 1 µM.
For Cn1cc2cc(-n3nc4c(S(C)(=O)=O)cn(CC5CC5)c4c(-c4ccc(C5CC5)cc4)c3=O)ccc2n1 [Example 262, 5-(cyclopropylmethyl)-4-(4-cyclopropylphenyl)-2-(2-methyl-2H-indazol-5-yl)-7-(methylsulfonyl)-2,5-dihydro-3H-pyrrolo[3,2-c]pyridazin-3-one], the IC50 was < 1 µM.
For Cc1c(C#N)c2nn(-c3ccc4nn(C)cc4c3)c(=O)c(-c3ccc(C4CC4)nc3)c2n1CC1CC1 [Example 265, 5-(cyclopropylmethyl)-4-(6-cyclopropylpyridin-3-yl)-6-methyl-2-(2-methyl-2H-indazol-5-yl)-3-oxo-2H,3H,5H-pyrrolopyridazine-7-carbonitrile], the IC50 was > 10 µM.
With Cc1ccc(-c2c(=O)n(-c3ccc4nn(C)cc4c3)nc3c(C#N)c(C)n(CC4CC4)c23)cn1 [Example 266, 5-(cyclopropylmethyl)-6-methyl-2-(2-methyl-2H-indazol-5-yl)-4-(6-methylpyridin-3-yl)-3-oxo-2H,3H,5H-pyrrolopyridazine-7-carbonitrile] the IC50 was > 10 µM.
For Cn1cc2cc(-n3nc4c(c(CC5CC5)cn4C)c(-c4ccc(OC(F)F)cc4)c3=O)ccc2n1 [Example 272, 5-(cyclopropylmethyl)-4-(4-(difluoromethoxy)phenyl)-7-methyl-2-(2-methyl-2H-indazol-5-yl)-2,7-dihydro-3H-pyrrolo[2,3-c]pyridazin-3-one], the IC50 was < 0.1 µM.
